Literature values in patent US20210308071A1, “Treatment method to abort and or reduce the severity of upper respiratory viral illness as well as to prevent upper respiratory viral illness in humans” (priority 2020, published 2021).
Where two headings read alike, the source gives them in different places.

Conditions: for orally administered dose excreted as the glucuronic acid conjugate within 24 hours: humans

In the case of `CC1(C)C2CCC1(C)C(O)C2` (stereo not drawn) [Borneol], the “administered dose detected as the glucuronic acid conjugate in human urine” value (10 hours after ingestion of 2000 mg) is given as 81%, the “orally administered dose excreted as the glucuronic acid conjugate within 24 hours” value (oral 1000 mg) is given as 81% and the “orally administered dose excreted as the glucuronic acid conjugate within 24 hours” value (oral 2000 mg) is given as 94%.
